Reference: patent US10076519B2 (CYTOKINETICS, INC., priority 2010, dated 2018)

Tested on: rabbit skeletal myofibrils (fast skeletal myofibrils)
Assay: Activation of fast skeletal myofibrils (PUMA assay, PK/LDH-coupled ATPase at pCa25)
Format: biochemical
Conditions: AC1.4 determined according to the procedure of Example 39; reported as class symbols
How it was run: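 ATPase activity of Triton-washed rabbit skeletal myofibrils, roughly 90% fast fibres, tracked by NADH loss at 340 nm through a PK/LDH-coupled ADP-regenerating system. Calcium set to 25% of maximal activity (pCa25), in PIPES 12 mM pH 6.8 with 2 mM MgCl2 and 1 mM DTT; AC1.4 reported.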

Row | Mean AC1.4 | SMILES
1 | B (B=1-10 uM) | CC(C)(CNc1ccc(-c2ccc(F)cc2)nn1)c1ccc(F)cc1 [[2-(4-fluorophenyl)-2-methylpropyl][6-(4-fluorophenyl)pyridazin-3-yl]amine]
2 | B (B=1-10 uM) | COc1ccc(-c2ccc(NCC(C)(C)c3ccc(F)cc3)nn2)nc1 [[2-(4-fluorophenyl)-2-methylpropyl][6-(5-methoxy(2-pyridyl))pyridazin-3-yl]amine]
3 | A (A=<1 uM) | COc1cccc(-c2ccc(NCC(C)(C)c3ccc(F)cc3)nn2)n1 [[2-(4-fluorophenyl)-2-methylpropyl][6-(6-methoxy(2-pyridyl))pyridazin-3-yl]amine]
4 | B (B=1-10 uM) | CNc1n[nH]c2ccc(-c3ccc(NCC(C)(C)c4ccc(F)cc4)nn3)cc12 [[2-(4-fluorophenyl)-2-methylpropyl]{6-[3-(methylamino)(1H-indazol-5-yl)]pyridazin-3-yl}amine]
5 | B (B=1-10 uM) | CC(C)(CNc1ccc(-c2cccc(C(=O)NCCO)c2)nn1)c1ccc(F)cc1 [[3-(6-{[2-(4-fluorophenyl)-2-methylpropyl]amino}pyridazin-3-yl)phenyl]-N-(2-hydroxyethyl)carboxamide]
6 | B (B=1-10 uM) | CC(C)(CNc1ccc(-c2cccc(C(=O)NCCNC(=O)c3cccc(-c4ccc(NCC(C)(C)c5ccc(F)cc5)nn4)c3)c2)nn1)c1ccc(F)cc1 [[3-(6-{[2-(4-fluorophenyl)-2-methylpropyl]amino}pyridazin-3-yl)phenyl]-N-(2-{[3-(6-{[2-(4-fluorophenyl)-2-methylpropyl]amino}pyridazin-3-yl)phenyl]carbonylamino}eth-yl)carboxamide]
7 | B (B=1-10 uM) | CNC(=O)c1cccc(-c2ccc(NCC(C)(C)c3ccc(F)cc3)nn2)c1 [[3-(6-{[2-(4-fluorophenyl)-2-methylpropyl]amino}pyridazin-3-yl)phenyl]-N-methylcarboxamide]
8 | B (B=1-10 uM) | CC(C)(CNc1ccc(-c2cccc(CO)c2)nn1)c1ccc(F)cc1 [[3-(6-{[2-(4-fluorophenyl)-2-methylpropyl]amino}pyridazin-3-yl)phenyl]methan-1-ol]
9 | B (B=1-10 uM) | CN(C)C(=O)n1nc(N)c2cc(-c3ccc(NCC(C)(C)c4ccc(F)cc4)nn3)ccc21 [[3-amino-5-(6-{[2-(4-fluorophenyl)-2-methylpropyl]amino}pyridazin-3-yl)(1H-indazolyl)]-N,N-dimethylcarboxamide]
10 | A (A=<1 uM) | CC(C)(CNc1ccc(-c2ccc3[nH]nc(NS(C)(=O)=O)c3c2)nn1)c1ccc(F)cc1 [[5-(6-{[2-(4-fluorophenyl)-2-methylpropyl]amino}pyridazin-3-yl)(1H-indazol-3-yl)](methylsulfonyl)amine]
11 | A (A=<1 uM) | CC(C)(CNc1ccc(-c2ccc3[nH]nc(CO)c3c2)nn1)c1ccc(F)cc1 [[5-(6-{[2-(4-fluorophenyl)-2-methylpropyl]amino}pyridazin-3-yl)-1H-indazol-3-yl]methan-1-ol]
12 | B (B=1-10 uM) | CC(C)(CNc1ccc(-c2ccnc(N)c2)nn1)c1ccc(F)cc1 [[6-(2-amino(4-pyridyl))pyridazin-3-yl][2-(4-fluorophenyl)-2-methylpropyl]amine]
13 | A (A=<1 uM) | CC(C)(CNc1ccc(-c2ccc3nc(N)[nH]c3c2)nn1)c1ccc(F)cc1 [[6-(2-aminobenzimidazol-5-yl)pyridazin-3-yl][2-(4-fluorophenyl)-2-methylpropyl]amine]
14 | B (B=1-10 uM) | CC(C)(CNc1ccc(-c2c[nH]c(N)n2)nn1)c1ccc(F)cc1 [[6-(2-aminoimidazol-4-yl)pyridazin-3-yl][2-(4-fluorophenyl)-2-methylpropyl]amine]
15 | D (D=>20 uM) | Nc1nc(-c2ccc(NCC3(c4ncccc4F)CCC3)nn2)c[nH]1 [[6-(2-aminoimidazol-4-yl)pyridazin-3-yl]{[(3-fluoro(2-pyridyl))cyclobutyl]methyl}amine]
16 | B (B=1-10 uM) | CC(C)(CNc1ccc(-c2cnc(N)nc2)nn1)c1ccc(F)cc1 [[6-(2-aminopyrimidin-5-yl)pyridazin-3-yl][2-(4-fluorophenyl)-2-methylpropyl]amine]
17 | A (A=<1 uM) | CC(C)(CNc1ccc(-c2ccccc2Cl)nn1)c1ccc(F)cc1 [[6-(2-chlorophenyl)pyridazin-3-yl][2-(4-fluorophenyl)-2-methylpropyl]amine]
18 | D (D=>20 uM) | CC(C)(CNc1ccc(-c2ccc3[nH]nc(N)c3c2)nn1)c1ncco1 [[6-(3-amino(1H-indazol-5-yl))pyridazin-3-yl](2-methyl-2-(1,3-oxazol-2-yl)propyl)amine]
19 | D (D=>20 uM) | CC(CNc1ccc(-c2ccc3[nH]nc(N)c3c2)nn1)N1CCCCC1 (stereo not drawn) [[6-(3-amino(1H-indazol-5-yl))pyridazin-3-yl](2-piperidylpropyl)amine]
20 | B (B=1-10 uM) | Nc1n[nH]c2ccc(-c3ccc(NCC(F)(F)c4ccc(F)cc4)nn3)cc12 [[6-(3-amino(1H-indazol-5-yl))pyridazin-3-yl][2,2-difluoro-2-(4-fluorophenyl)ethyl]amine]
21 | A (A=<1 uM) | CC(C)(CNc1ccc(-c2ccc3[nH]nc(N)c3c2)nn1)c1ncc(F)cc1F [[6-(3-amino(1H-indazol-5-yl))pyridazin-3-yl][2-(3,5-difluoro(2-pyridyl))-2-methylpropyl]amine]
22 | B (B=1-10 uM) | CC(C)(CNc1ccc(-c2ccc3[nH]nc(N)c3c2)nn1)c1ncccc1F [[6-(3-amino(1H-indazol-5-yl))pyridazin-3-yl][2-(3-fluoro(2-pyridyl))-2-methylpropyl]amine]
23 | A (A=<1 uM) | COc1cccc(C(C)(C)CNc2ccc(-c3ccc4[nH]nc(N)c4c3)nn2)c1 [[6-(3-amino(1H-indazol-5-yl))pyridazin-3-yl][2-(3-methoxyphenyl)-2-methylpropyl]amine]
24 | A (A=<1 uM) | CC(C)(CNc1ccc(-c2ccc3[nH]nc(N)c3c2)nn1)c1ccc(F)cc1 [[6-(3-amino(1H-indazol-5-yl))pyridazin-3-yl][2-(4-fluorophenyl)-2-methylpropyl]amine]
25 | B (B=1-10 uM) | CC(C)(CNc1ccc(-c2ccc3[nH]nc(N)c3c2)nn1)c1ccc(F)cn1 [[6-(3-amino(1H-indazol-5-yl))pyridazin-3-yl][2-(5-fluoro(2-pyridyl))-2-methylpropyl]amine]
26 | A (A=<1 uM) | Cc1ccccc1C(C)(C)CNc1ccc(-c2ccc3[nH]nc(N)c3c2)nn1 [[6-(3-amino(1H-indazol-5-yl))pyridazin-3-yl][2-methyl-2-(2-methylphenyl)propyl]amine]
27 | A (A=<1 uM) | Cc1ccc(C(C)(C)CNc2ccc(-c3ccc4[nH]nc(N)c4c3)nn2)cc1 [[6-(3-amino(1H-indazol-5-yl))pyridazin-3-yl][2-methyl-2-(4-methylphenyl)propyl]amine]

Same assay, conditions: median AC1.4 class, procedure of Example 39

Row | Mean AC1.4 | SMILES
28 | A (A=<1 uM) | CC(C)(CNc1ccc(-c2ccc3[nH]nc(NCCOCc4ccccc4)c3c2)nn1)c1ccc(F)cc1 [[2-(4-fluorophenyl)-2-methylpropyl][6-(3-{[2-(phenylmethoxy)ethyl]amino}(1H-indazol-5-yl))pyridazin-3-yl]amine]
29 | B (B=1-10 uM) | CN(C)c1n[nH]c2ccc(-c3ccc(NCC(C)(C)c4ccc(F)cc4)nn3)cc12 [[5-(6-{[2-(4-fluorophenyl)-2-methylpropyl]amino}pyridazin-3-yl)(1H-indazol-3-yl)]dimethylamine]
30 | A (A=<1 uM) | Fc1cccnc1C1(CNc2ccc(-c3cccc(F)c3F)nn2)CCC1 [[6-(2,3-difluorophenyl)pyridazin-3-yl]{[(3-fluoro(2-pyridyl))cyclobutyl]methyl}amine]
31 | B (B=1-10 uM) | Nc1ncccc1-c1ccc(NCC2(c3ncccc3F)CCC2)nn1 [[6-(2-amino(3-pyridyl))pyridazin-3-yl]{[(3-fluoro(2-pyridyl))cyclobutyl]methyl}amine]
32 | B (B=1-10 uM) | Nc1nccc(-c2ccc(NCC3(c4ncccc4F)CCC3)nn2)n1 [[6-(2-aminopyrimidin-4-yl)pyridazin-3-yl]{[(3-fluoro(2-pyridyl))cyclobutyl]methyl}amine]
33 | B (B=1-10 uM) | Nc1ncc(-c2ccc(NC3(c4ccc(F)cc4)CCC3)nn2)cn1 [[6-(2-aminopyrimidin-5-yl)pyridazin-3-yl][(4-fluorophenyl)cyclobutyl]amine]
34 | B (B=1-10 uM) | Nc1ncc(-c2ccc(NCC3(c4ncccc4F)CCC3)nn2)cn1 [[6-(2-aminopyrimidin-5-yl)pyridazin-3-yl]{[(3-fluoro(2-pyridyl))cyclobutyl]methyl}amine]
35 | B (B=1-10 uM) | CC(C)(CNc1ccc(-c2cccc(-c3nn[nH]n3)c2)nn1)c1ncccc1F [[6-(3-(2H-1,2,3,4-tetraazol-5-yl)phenyl)pyridazin-3-yl][2-(3-fluoro(2-pyridyl))-2-methylpropyl]amine]
36 | A (A=<1 uM) | Fc1cccnc1[C@]1(CNc2ccc(-c3cccc(-c4nn[nH]n4)c3)nn2)C[C@@H](F)C1 [[6-(3-(2H-1,2,3,4-tetraazol-5-yl)phenyl)pyridazin-3-yl]{[3-fluoro-1-(3-fluoro(2-pyridyl))cyclobutyl]methyl}amine]
37 | A (A=<1 uM) | Fc1cccnc1C1(CNc2ccc(-c3cccc(-c4nn[nH]n4)c3)nn2)CCC1 [[6-(3-(2H-1,2,3,4-tetraazol-5-yl)phenyl)pyridazin-3-yl]{[(3-fluoro(2-pyridyl))cyclobutyl]methyl}amine]
38 | B (B=1-10 uM) | Nc1n[nH]c2ccc(-c3ccc(NC4(c5ncccc5F)CCC4)nn3)cc12 [[6-(3-amino(1H-indazol-5-yl))pyridazin-3-yl][(3-fluoro(2-pyridyl))cyclobutyl]amine]

Same assay, conditions: median AC1.4 reported as class; procedure of Example 39

Row | Mean AC1.4 | SMILES
39 | B (B=1-10 uM) | Nc1ncc(-c2ccc(NC[C@]3(c4ncccc4F)C[C@H](F)C3)nn2)cn1 [[6-(2-aminopyrimidin-5-yl)pyridazin-3-yl]{[3-fluoro-1-(3-fluoro(2-pyridyl))cyclobutyl]methyl}amine]
